According to PubChem BioAssay AID2060333 (Molecular Pharmacology Branch, DTP, NCI, 2025):

System: 845751-090-R-J2-PDC tumor spheroid viability
Assay: Anticancer human tumor 845751-090-R-J2-PDC patient-derived head and neck squamous carcinoma cell line growth inhibition [IpAb]
Details: spheroids with HUVEC and MSC; for IC50: curve of first compound; for viability, T/C: stronger effect = lower value
Method in brief: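 Spheroids of 60% malignant cells, 25% HUVEC and 15% MSC were exposed to targeted agents combined with ipatasertib or abemaciclib. Doses started at or near clinical Cmax (10 microM when unknown) and fell in half-log steps.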

[1] = second compound 0.01 µM, first compound 0.0316 µM
[2] = second compound 0.01 µM, first compound 0.1 µM
[3] = second compound 0.01 µM, first compound 0.316 µM
[4] = second compound 0.01 µM, first compound 1 µM
[5] = second compound 0.01 µM, first compound 3.16 µM
[6] = second compound 0.01 µM, first compound 10 µM
[7] = second compound 0.0316 µM, first compound 0.0316 µM
[8] = second compound 0.0316 µM, first compound 0.1 µM
[9] = second compound 0.0316 µM, first compound 0.316 µM
[10] = second compound 0.0316 µM, first compound 1 µM
[11] = second compound 0.0316 µM, first compound 3.16 µM
[12] = second compound 0.0316 µM, first compound 10 µM
[13] = second compound 0.1 µM, first compound 0.0316 µM
[14] = second compound 0.1 µM, first compound 0.1 µM
[15] = second compound 0.1 µM, first compound 0.316 µM
[16] = second compound 0.1 µM, first compound 1 µM
[17] = second compound 0.1 µM, first compound 3.16 µM
[18] = second compound 0.1 µM, first compound 10 µM
[19] = second compound 0.316 µM, first compound 0.0316 µM
[20] = second compound 0.316 µM, first compound 0.1 µM
[21] = second compound 0.316 µM, first compound 0.316 µM
[22] = second compound 0.316 µM, first compound 1 µM
[23] = second compound 0.316 µM, first compound 3.16 µM
[24] = second compound 0.316 µM, first compound 10 µM
[25] = second compound 1 µM, first compound 0.0316 µM
[26] = second compound 1 µM, first compound 0.1 µM
[27] = second compound 1 µM, first compound 0.316 µM
[28] = second compound 1 µM, first compound 1 µM
[29] = second compound 1 µM, first compound 3.16 µM
[30] = second compound 1 µM, first compound 10 µM
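Also: spheroids exposed to compounds for 7 days before readout.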
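For viability, T/C in this document: CTG3D luminescence normalised so that 100% = DMSO vehicle control.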

SMILES	IC50 (second compound 0.01 µM)	IC50 (second compound 0.0316 µM)	IC50 (second compound 0.1 µM)	IC50 (second compound 0.316 µM)	IC50 (second compound 1 µM)	viability, T/C [1]	viability, T/C [2]	viability, T/C [3]	viability, T/C [4]	viability, T/C [7]	viability, T/C [8]	viability, T/C [9]	viability, T/C [10]	viability, T/C [13]	viability, T/C [14]	viability, T/C [15]	viability, T/C [16]	viability, T/C [19]	viability, T/C [20]	viability, T/C [21]	also measured
CC1(C)CCC(CN2CCN(c3ccc(C(=O)NS(=O)(=O)c4ccc(NCC5CCOCC5)c([N+](=O)[O-])c4)c(Oc4cnc5[nH]ccc5c4)c3)CC2)=C(c2ccc(Cl)cc2)C1 + CCN1CCN(Cc2ccc(Nc3ncc(F)c(-c4cc(F)c5nc(C)n(C(C)C)c5c4)n3)nc2)CC1	7510 nM	7030 nM	6370 nM	6410 nM	6750 nM	104%	119%	103%	91.3%	136%	90.5%	80.8%	93.6%	75%	72.2%	94.6%	104%	74.6%	108%	92.3%	viability, T/C [5]: 138%; viability, T/C [6]: 29.8%; viability, T/C [11]: 137%; viability, T/C [12]: 24.4%; viability, T/C [17]: 117%; viability, T/C [18]: 22.7%; viability, T/C [22]: 85.3%; viability, T/C [23]: 115%; viability, T/C [24]: 21.6%; viability, T/C [25]: 106%; viability, T/C [26]: 107%; viability, T/C [27]: 102%; viability, T/C [28]: 115%; viability, T/C [29]: 123%; viability, T/C [30]: 18.5%
COc1c(OCCCN2CCOCC2)ccc2c3n(c(=NC(=O)c4cnc(N)nc4)nc12)CCN3 + CCN1CCN(Cc2ccc(Nc3ncc(F)c(-c4cc(F)c5nc(C)n(C(C)C)c5c4)n3)nc2)CC1	7.18 nM	4.99 nM	5.23 nM	6.38 nM	10.6 nM	30.8%	13.7%	10.6%	4.54%	28.3%	11.9%	8.73%	3.86%	26.3%	11.7%	12.8%	3.55%	24.6%	15.8%	11.7%	viability, T/C (second compound 0.01 µM, first compound 0.00316 µM): 63.3%; viability, T/C (second compound 0.01 µM, first compound 0.01 µM): 43.5%; viability, T/C (second compound 0.0316 µM, first compound 0.00316 µM): 54%; viability, T/C (second compound 0.0316 µM, first compound 0.01 µM): 43.6%; viability, T/C (second compound 0.1 µM, first compound 0.00316 µM): 56.5%; viability, T/C (second compound 0.1 µM, first compound 0.01 µM): 41.6%; viability, T/C (second compound 0.316 µM, first compound 0.00316 µM): 68.2%; viability, T/C (second compound 0.316 µM, first compound 0.01 µM): 35.9%; viability, T/C [22]: 4.79%; viability, T/C (second compound 1 µM, first compound 0.00316 µM): 60%; viability, T/C (second compound 1 µM, first compound 0.01 µM): 54.1%; viability, T/C [25]: 31.2%; viability, T/C [26]: 21.5%; viability, T/C [27]: 12.6%; viability, T/C [28]: 5.48%
Cc1nc(NC(=O)N2CCCC2C(N)=O)sc1-c1ccnc(C(C)(C)C(F)(F)F)c1 (stereo not given) + CCN1CCN(Cc2ccc(Nc3ncc(F)c(-c4cc(F)c5nc(C)n(C(C)C)c5c4)n3)nc2)CC1	101 nM	76.4 nM	< 31.6 nM	36.2 nM	114 nM	69.5%	46.2%	37.3%	28.9%	62.1%	41.9%	40.9%	22.5%	41.8%	43.6%	27.4%	20.8%	51.2%	39.8%	25.9%	viability, T/C [5]: 12.9%; viability, T/C [6]: 11.6%; viability, T/C [11]: 15.5%; viability, T/C [12]: 10.9%; viability, T/C [17]: 14.7%; viability, T/C [18]: 10.1%; viability, T/C [22]: 20.9%; viability, T/C [23]: 17.9%; viability, T/C [24]: 12.4%; viability, T/C [25]: 54.9%; viability, T/C [26]: 50.5%; viability, T/C [27]: 42.4%; viability, T/C [28]: 24.1%; viability, T/C [29]: 18.7%; viability, T/C [30]: 11.3%
